Test results reported in patent US9556200B2, “Tricyclic compound” (TAKEDA PHARMACEUTICAL COMPANY LIMITED, priority 2012, dated 2017).
Structures can show the parent of a compound that is named as a salt.

Target: serotonin 5-HT2C receptor (VSV type isoform, stably expressed in CHO cells) (Homo sapiens, UniProt P28335, I156V/I160V/N158S)
Assay: cell-based
Settings: read-out: ratio (%) relative to maximum response by 5-HT (10 μM)

serotonin 5-HT2C receptor (VSV type isoform, stably expressed in CHO cells), sequence (P28335 33-458 I156V/N158S/I160V limits assumed): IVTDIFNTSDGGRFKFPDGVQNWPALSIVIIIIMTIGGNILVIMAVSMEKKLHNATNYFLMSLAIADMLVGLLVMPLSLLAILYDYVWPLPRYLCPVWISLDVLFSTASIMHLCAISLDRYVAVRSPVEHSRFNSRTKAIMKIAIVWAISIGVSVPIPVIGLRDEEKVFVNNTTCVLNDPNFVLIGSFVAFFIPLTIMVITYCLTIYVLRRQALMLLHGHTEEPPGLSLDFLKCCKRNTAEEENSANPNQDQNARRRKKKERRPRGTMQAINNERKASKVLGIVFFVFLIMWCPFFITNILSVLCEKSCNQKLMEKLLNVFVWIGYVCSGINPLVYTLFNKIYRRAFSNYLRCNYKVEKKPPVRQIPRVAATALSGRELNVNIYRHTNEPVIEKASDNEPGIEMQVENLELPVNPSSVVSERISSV

| Structure (SMILES) | Emax [%] | Emax at 10 µM [%] |
| --- | --- | --- |
| c1cc2c3c(c[nH]c3c1)CNCC2 [Example 1, 3,4,5,6-tetrahydro-1H-azepino[3,4,5-cd]indole hydrochloride] | 104 |  |
| c1cc2c3c(c1)NCC3CNCC2 (centres unmarked) [Example 2, 2,2a,3,4,5,6-hexahydro-1H-azepino[3,4,5-cd]indole dihydrochloride] | 107 |  |
| Cn1cc2c3c(cccc31)CCNC2 [Example 3, 1-methyl-3,4,5,6-tetrahydro-1H-azepino[3,4,5-cd]indole] | 106 |  |
| CN1CC2CNCCc3cccc1c32 (centres unmarked) [Example 4, 1-methyl-2,2a,3,4,5,6-hexahydro-1H-azepino[3,4,5-cd]indole hydrochloride] | 100 |  |
| CN1CC2CNCCc3ccc(Cl)c1c32 (centres unmarked) [Example 5, 9-chloro-1-methyl-2,2a,3,4,5,6-hexahydro-1H-azepino[3,4,5-cd]indole hydrochloride] | 108 |  |
| CN1CC2CNCCc3c(Cl)ccc1c32 (centres unmarked) [Example 6, 7-chloro-1-methyl-2,2a,3,4,5,6-hexahydro-1H-azepino[3,4,5-cd]indole hydrochloride] | 98 |  |
| CN1CC2CNCCc3c(Cl)cc(Cl)c1c32 (centres unmarked) [Example 7, 7,9-dichloro-1-methyl-2,2a,3,4,5,6-hexahydro-1H-azepino[3,4,5-cd]indole] | 97 |  |
| CN1C[C@H]2CNCCc3ccc(Cl)c1c32 [Example 8, (2aR)-9-chloro-1-methyl-2,2a,3,4,5,6-hexahydro-1H-azepino[3,4,5-cd]indole hydrochloride] | 105 |  |
| CN1C[C@@H]2CNCCc3ccc(Cl)c1c32 [Example 9, (2aS)-9-chloro-1-methyl-2,2a,3,4,5,6-hexahydro-1H-azepino[3,4,5-cd]indole hydrochloride] | 109 |  |
| Cc1ccc2c3c1N(C)CC3CNCC2 (centres unmarked) [Example 10, 1,9-dimethyl-2,2a,3,4,5,6-hexahydro-1H-azepino[3,4,5-cd]indole hydrochloride] | 100 |  |
| Cc1ccc2c3c1N(C)C[C@@H]3CNCC2 [Example 11, (2aS)-1,9-dimethyl-2,2a,3,4,5,6-hexahydro-1H-azepino[3,4,5-cd]indole 0.5 sulfate] | 102 |  |
| Cc1ccc2c3c1N(C)C[C@H]3CNCC2 [Example 12, (2aR)-1,9-dimethyl-2,2a,3,4,5,6-hexahydro-1H-azepino[3,4,5-cd]indole 0.5 sulfate] | 102 |  |
| CN1CC2CNCCc3c(Br)ccc1c32 (centres unmarked) [Example 13, 7-bromo-1-methyl-2,2a,3,4,5,6-hexahydro-1H-azepino[3,4,5-cd]indole hydrochloride] | 81 |  |
| CN1CC2CNCCc3c(Br)cc(Br)c1c32 (centres unmarked) [Example 14, 7,9-dibromo-1-methyl-2,2a,3,4,5,6-hexahydro-1H-azepino[3,4,5-cd]indole hydrochloride] |  | 87 |
| CC(C)N1CC2CNCCc3cccc1c32 (centres unmarked) [Example 15, 1-isopropyl-2,2a,3,4,5,6-hexahydro-1H-azepino[3,4,5-cd]indole hydrochloride] | 98 |  |
| CC(C)N1CC2CNCCc3ccc(Cl)c1c32 (centres unmarked) [Example 16, 9-chloro-1-isopropyl-2,2a,3,4,5,6-hexahydro-1H-azepino[3,4,5-cd]indole hydrochloride] | 101 |  |
| CC(C)N1C[C@@H]2CNCCc3ccc(Cl)c1c32 [Example 17, (2aS)-9-chloro-1-isopropyl-2,2a,3,4,5,6-hexahydro-1H-azepino[3,4,5-cd]indole hydrochloride] | 99 |  |
| CC(C)N1C[C@H]2CNCCc3ccc(Cl)c1c32 [Example 18, (2aR)-9-chloro-1-isopropyl-2,2a,3,4,5,6-hexahydro-1H-azepino[3,4,5-cd]indole hydrochloride] | 105 |  |
| c1ccc(CN2CC3CNCCc4cccc2c43)cc1 (centres unmarked) [Example 19, 1-benzyl-2,2a,3,4,5,6-hexahydro-1H-azepino[3,4,5-cd]indole hydrochloride] | 96 |  |
| CC(=O)N1CC2CNCCc3cccc1c32 (centres unmarked) [Example 20, 1-(2,2a,3,4,5,6-hexahydro-1H-azepino[3,4,5-cd]indol-1-yl)ethanone hydrochloride] | 94 |  |
| CC(=O)N1CC2CNCCc3ccc(Cl)c1c32 (centres unmarked) [Example 21, 1-(9-chloro-2,2a,3,4,5,6-hexahydro-1H-azepino[3,4,5-cd]indol-1-yl)ethanone hydrochloride] | 109 |  |

| Structure (SMILES) | Emax [%] | Emax at 10 µM [%] |
| --- | --- | --- |
| CC(=O)N1CC2CNCCc3c(Cl)ccc1c32 (centres unmarked) [Example 22, 1-(7-chloro-2,2a,3,4,5,6-hexahydro-1H-azepino[3,4,5-cd]indol-1-yl)ethanone hydrochloride] | 105 |  |
| CC(=O)N1CC2CNCCc3c(Cl)cc(Cl)c1c32 (centres unmarked) [Example 23, 1-(7,9-dichloro-2,2a,3,4,5,6-hexahydro-1H-azepino[3,4,5-cd]indol-1-yl)ethanone] | 100 |  |
| CC(=O)N1C[C@@H]2CNCCc3ccc(Cl)c1c32 [Example 24, 1-((2aS)-9-chloro-2,2a,3,4,5,6-hexahydro-1H-azepino[3,4,5-cd]indol-1-yl)ethanone hydrochloride] | 96 |  |
| CC(=O)N1C[C@H]2CNCCc3ccc(Cl)c1c32 [Example 25, 1-((2aR)-9-chloro-2,2a,3,4,5,6-hexahydro-1H-azepino[3,4,5-cd]indol-1-yl)ethanone hydrochloride] | 96 |  |
| Clc1ccc2c3c1NCC3CNCC2 (centres unmarked) [Example 26, 9-chloro-2,2a,3,4,5,6-hexahydro-1H-azepino[3,4,5-cd]indole] | 98 |  |
| CCN1C[C@@H]2CNCCc3ccc(Cl)c1c32 [Example 29, (2aS)-9-chloro-1-ethyl-2,2a,3,4,5,6-hexahydro-1H-azepino[3,4,5-cd]indole hydrochloride] | 93 |  |
| Clc1ccc2c3c1N(C1CC1)C[C@@H]3CNCC2 [Example 30, (2aS)-9-chloro-1-cyclopropyl-2,2a,3,4,5,6-hexahydro-1H-azepino[3,4,5-cd]indole] | 94 |  |
| c1cc2c3c(coc3c1)CNCC2 [Example 31, 3,4,5,6-tetrahydrofuro[4,3,2-ef][3]benzazepine hydrochloride] | 85 |  |
| c1cc2c3c(c1)OCC3CNCC2 (centres unmarked) [Example 32, 2,2a,3,4,5,6-hexahydrofuro[4,3,2-ef][3]benzazepine hydrochloride] | 97 |  |
| Clc1ccc2c3c1OCC3CNCC2 (centres unmarked) [Example 33, 9-chloro-2,2a,3,4,5,6-hexahydrofuro[4,3,2-ef][3]benzazepine hydrochloride] | 94 |  |
| CC(C)C(=O)N1CC2CNCCc3cccc1c32 (centres unmarked) [Example 34, 1-(2,2a,3,4,5,6-hexahydro-1H-azepino[3,4,5-cd]indol-1-yl)-2-methylpropan-1-one hydrochloride] | 77 |  |
| CC(C)C(=O)N1CC2CNCCc3c(Cl)ccc1c32 (centres unmarked) [Example 35, 1-(7-chloro-2,2a,3,4,5,6-hexahydro-1H-azepino[3,4,5-cd]indol-1-yl)-2-methylpropan-1-one hydrochloride] | 99 |  |
| O=C(c1ccccc1)N1CC2CNCCc3cccc1c32 (centres unmarked) [Example 36, 2,2a,3,4,5,6-hexahydro-1H-azepino[3,4,5-cd]indol-1-yl(phenyl)methanone hydrochloride] | 79 |  |
| O=C(c1ccccc1)N1CC2CNCCc3ccc(Cl)c1c32 (centres unmarked) [Example 37, (9-chloro-2,2a,3,4,5,6-hexahydro-1H-azepino[3,4,5-cd]indol-1-yl)(phenyl)methanone hydrochloride] | 95 |  |
| O=C(c1ccccc1)N1CC2CNCCc3c(Cl)ccc1c32 (centres unmarked) [Example 38, (7-chloro-2,2a,3,4,5,6-hexahydro-1H-azepino[3,4,5-cd]indol-1-yl)(phenyl)methanone hydrochloride] | 93 |  |
| O=C(c1ccccc1)N1CC2CNCCc3c(Cl)cc(Cl)c1c32 (centres unmarked) [Example 39, 7,9-dichloro-1-(phenylcarbonyl)-2,2a,3,4,5,6-hexahydro-1H-azepino[3,4,5-cd]indole hydrochloride] | 93 |  |
| CC(C)c1ccc2c3c1N(C)CC3CNCC2 (centres unmarked) [Example 40, 9-isopropyl-1-methyl-2,2a,3,4,5,6-hexahydro-1H-azepino[3,4,5-cd]indole] | 93 |  |
| c1cc2c3c(csc3c1)CNCC2 [Example 41, 3,4,5,6-tetrahydrothieno[4,3,2-ef][3]benzazepine hydrochloride] | 91 |  |
| O=S1(=O)CC2CNCCc3cccc1c32 (centres unmarked) [Example 42, 2,2a,3,4,5,6-hexahydrothieno[4,3,2-ef][3]benzazepine 1,1-dioxide hydrochloride] | 102 |  |
| c1cc2c3c(c1)SCC3CNCC2 (centres unmarked) [Example 43, 2,2a,3,4,5,6-hexahydrothieno[4,3,2-ef][3]benzazepine hydrochloride] | 107 |  |
